{"source": "ChEMBL document CHEMBL4627354", "about": "“Antifungal polyketide derivatives from the endophytic fungus Aplosporella javeedii” (Bioorg Med Chem, 2020)", "key": {"Enterococcus faecium [1]": {"test_system": "Enterococcus faecium", "assay": "Antibacterial activity against Enterococcus faecium ATCC 700221 by CLSI broth microdilution method", "type": "functional, organism-based"}, "Enterococcus faecalis [2]": {"test_system": "Enterococcus faecalis", "assay": "Antibacterial activity against Enterococcus faecalis ATCC 29212 by CLSI broth microdilution method", "type": "functional, organism-based"}, "[3]": {"test_system": "Mycobacterium tuberculosis", "assay": "Antibacterial activity against Mycobacterium tuberculosis H37Rv by CLSI broth microdilution method", "type": "functional, organism-based"}, "Escherichia coli": {"test_system": "Escherichia coli", "assay": "Antibacterial activity against Escherichia coli ATCC 25922 by CLSI broth microdilution method", "type": "functional, organism-based"}, "Saccharomyces cerevisiae [4]": {"test_system": "Saccharomyces cerevisiae", "assay": "Antifungal activity against Saccharomyces cerevisiae incubated for overnight by disc diffusion method", "type": "functional, organism-based"}, "Staphylococcus aureus [5]": {"test_system": "Staphylococcus aureus", "assay": "Antibacterial activity against Staphylococcus aureus ATCC 29213 by CLSI broth microdilution method", "type": "functional"}, "Candida albicans [6]": {"test_system": "Candida albicans", "assay": "Antifungal activity against hyphae form of Candida albicans ATCC 24433 incubated for overnight by disc diffusion method", "type": "functional, organism-based"}, "Enterococcus faecium [7]": {"test_system": "Enterococcus faecium", "assay": "Antibacterial activity against Enterococcus faecium ATCC 35667 by CLSI broth microdilution method", "type": "functional, organism-based"}, "Staphylococcus aureus [8]": {"test_system": "Staphylococcus aureus", "assay": "Antibacterial activity against methicillin-resistant and […] Staphylococcus aureus ATCC 700699 by CLSI broth microdilution method", "type": "functional", "conditions": "Mu50 ATCC 700699"}, "Enterococcus faecalis [9]": {"test_system": "Enterococcus faecalis", "assay": "Antibacterial activity against Enterococcus faecalis ATCC 51299 by CLSI broth microdilution method", "type": "functional, organism-based"}, "Bacillus subtilis": {"test_system": "Bacillus subtilis", "assay": "Antibacterial activity against Bacillus subtilis ATCC 169 by CLSI broth microdilution method", "type": "functional"}, "Candida albicans [10]": {"test_system": "Candida albicans", "assay": "Fungicidal activity against hyphae form of Candida albicans ATCC 24433 assessed as reduction in bacterial viability at 474 uM measured after 6 hrs by time kill assay", "type": "functional, organism-based"}, "Candida albicans [11]": {"test_system": "Candida albicans", "assay": "Antifungal activity against hyphae form of Candida albicans ATCC 24433 assessed as diameter of zone inhibition at 1 mM incubated for overnight by disc diffusion method", "type": "functional", "conditions": "read-out: DIZ"}, "[12]": {"assay": "Cytotoxicity against human CLS54 cells assessed as reduction in cell viability up to 100 uM measured after 48 hrs by resazurin based fluorescence assay"}, "Huh-7": {"test_system": "Huh-7", "assay": "Cytotoxicity against human HuH7 cells assessed as reduction in cell viability up to 100 uM measured after 48 hrs by resazurin based fluorescence assay", "conditions": "huh-7, 48 h"}, "THP-1": {"test_system": "THP-1", "assay": "Cytotoxicity against human THP1 cells assessed as reduction in cell viability up to 100 uM measured after 48 hrs by resazurin based fluorescence assay", "conditions": "thp-1, 48 h"}, "Candida albicans [13]": {"test_system": "Candida albicans", "assay": "Antifungal activity against hyphae form of Candida albicans ATCC 24433 assessed inhibition of visible microbe growth incubated for overnight by CLSI microbroth dilution method", "type": "functional"}, "Saccharomyces cerevisiae [14]": {"test_system": "Saccharomyces cerevisiae", "assay": "Antifungal activity against Saccharomyces cerevisiae assessed as diameter of zone inhibition incubated for overnight by disc diffusion method", "type": "functional"}, "Candida albicans [15]": {"test_system": "Candida albicans", "assay": "Fungicidal activity against hyphae form of Candida albicans ATCC 24433 assessed as log reduction in bacterial viability at 400 uM measured after 6 hrs by time kill assay", "type": "functional"}}, "note": "Calls of active or inactive are those of the source. The calls are words filed in the database; no cut-off is given here."}
{"smiles": "Cc1c(CCCC(O)CO)cc(O)c(C=O)c1O", "note": "(stereo unspecified)", "values": [{"measurement": "Activity", "setting": "Enterococcus faecium [1]", "value": "inactive"}, {"measurement": "Activity", "setting": "Enterococcus faecalis [2]", "value": "inactive"}, {"measurement": "Activity", "setting": "[3]", "value": "inactive"}, {"measurement": "Activity", "setting": "Escherichia coli", "value": "inactive"}, {"measurement": "Activity", "setting": "Saccharomyces cerevisiae [4]", "value": "inactive"}, {"measurement": "Activity", "setting": "Staphylococcus aureus [5]", "value": "inactive"}, {"measurement": "Activity", "setting": "Candida albicans [6]", "value": "inactive"}, {"measurement": "Activity", "setting": "Enterococcus faecium [7]", "value": "inactive"}, {"measurement": "Activity", "setting": "Staphylococcus aureus [8]", "value": "inactive"}, {"measurement": "Activity", "setting": "Enterococcus faecalis [9]", "value": "inactive"}, {"measurement": "Activity", "setting": "Bacillus subtilis", "value": "inactive"}]}
{"smiles": "Cc1c(CCC(=O)O)cc(O)c(C=O)c1O", "values": [{"measurement": "Activity", "setting": "Enterococcus faecium [1]", "value": "inactive"}, {"measurement": "Activity", "setting": "Enterococcus faecalis [2]", "value": "inactive"}, {"measurement": "Activity", "setting": "[3]", "value": "inactive"}, {"measurement": "Activity", "setting": "Escherichia coli", "value": "inactive"}, {"measurement": "Activity", "setting": "Saccharomyces cerevisiae [4]", "value": "inactive"}, {"measurement": "MIC", "setting": "Staphylococcus aureus [5]", "value": 25, "unit": "µM"}, {"measurement": "Activity", "setting": "Candida albicans [6]", "value": "inactive"}, {"measurement": "Activity", "setting": "Enterococcus faecium [7]", "value": "inactive"}, {"measurement": "MIC", "setting": "Staphylococcus aureus [8]", "value": 50, "unit": "µM"}, {"measurement": "Activity", "setting": "Enterococcus faecalis [9]", "value": "inactive"}, {"measurement": "Activity", "setting": "Bacillus subtilis", "value": "inactive"}]}
{"smiles": "Cc1c(CCCCC(=O)O)cc(O)c(C=O)c1O", "values": [{"measurement": "Activity", "setting": "Enterococcus faecium [1]", "value": "inactive"}, {"measurement": "Activity", "setting": "Enterococcus faecalis [2]", "value": "inactive"}, {"measurement": "Activity", "setting": "[3]", "value": "inactive"}, {"measurement": "Activity", "setting": "Escherichia coli", "value": "inactive"}, {"measurement": "Activity", "setting": "Saccharomyces cerevisiae [4]", "value": "inactive"}, {"measurement": "Activity", "setting": "Staphylococcus aureus [5]", "value": "inactive"}, {"measurement": "Activity", "setting": "Candida albicans [6]", "value": "inactive"}, {"measurement": "Activity", "setting": "Enterococcus faecium [7]", "value": "inactive"}, {"measurement": "Activity", "setting": "Staphylococcus aureus [8]", "value": "inactive"}, {"measurement": "Activity", "setting": "Enterococcus faecalis [9]", "value": "inactive"}, {"measurement": "Activity", "setting": "Bacillus subtilis", "value": "inactive"}]}
{"smiles": "Cc1c(CCCCCO)cc(O)c(C=O)c1O", "values": [{"measurement": "Activity", "setting": "Enterococcus faecium [1]", "value": "inactive"}, {"measurement": "Activity", "setting": "Enterococcus faecalis [2]", "value": "inactive"}, {"measurement": "Activity", "setting": "[3]", "value": "inactive"}, {"measurement": "Activity", "setting": "Escherichia coli", "value": "inactive"}, {"measurement": "Activity", "setting": "Saccharomyces cerevisiae [4]", "value": "inactive"}, {"measurement": "Activity", "setting": "Staphylococcus aureus [5]", "value": "inactive"}, {"measurement": "Activity", "setting": "Candida albicans [6]", "value": "inactive"}, {"measurement": "Activity", "setting": "Enterococcus faecium [7]", "value": "inactive"}, {"measurement": "Activity", "setting": "Staphylococcus aureus [8]", "value": "inactive"}, {"measurement": "Activity", "setting": "Enterococcus faecalis [9]", "value": "inactive"}, {"measurement": "Activity", "setting": "Bacillus subtilis", "value": "inactive"}]}
{"smiles": "CN[C@H]1C[C@@H](N)[C@H](O)[C@@H](O[C@@H]2O[C@H](CO)[C@H](O)[C@@H]3O[C@@]4(O[C@H]23)O[C@H]([C@H](N)CO)[C@H](O)[C@H](O)[C@H]4O)[C@@H]1O", "values": [{"measurement": "Activity", "setting": "Candida albicans [10]", "value": "Active"}]}
{"smiles": "CCCCCc1cc(O)c(C=O)c(O)c1C", "values": [{"measurement": "zone of inhibition at 1000 µM", "setting": "Candida albicans [11]", "value": 8, "unit": "mm"}, {"measurement": "Activity", "setting": "Enterococcus faecium [1]", "value": "inactive"}, {"measurement": "Activity", "setting": "Enterococcus faecalis [2]", "value": "inactive"}, {"measurement": "Activity", "setting": "[3]", "value": "inactive"}, {"measurement": "Activity", "setting": "[12]", "value": "Non-Toxic"}, {"measurement": "Activity", "setting": "Escherichia coli", "value": "inactive"}, {"measurement": "MIC", "setting": "Staphylococcus aureus [5]", "value": 50, "unit": "µM"}, {"measurement": "Activity", "setting": "Huh-7", "value": "Non-Toxic"}, {"measurement": "Activity", "setting": "THP-1", "value": "Non-Toxic"}, {"measurement": "MIC", "setting": "Candida albicans [13]", "value": 100, "unit": "µM"}, {"measurement": "diameter of the inhibition zone (DIZ)", "setting": "Saccharomyces cerevisiae [14]", "value": 18, "unit": "mm"}, {"measurement": "Activity", "setting": "Enterococcus faecium [7]", "value": "inactive"}, {"measurement": "log(activity)", "setting": "Candida albicans [15]", "value": 3.5}, {"measurement": "MIC", "setting": "Staphylococcus aureus [8]", "value": 50, "unit": "µM"}, {"measurement": "Activity", "setting": "Enterococcus faecalis [9]", "value": "inactive"}, {"measurement": "MIC", "setting": "Bacillus subtilis", "value": 25, "unit": "µM"}]}
